Assay results published in patent publication US10285986B2, “Compounds and anti-tumor NQO1 substrates” (The Board of Trustees of the University of Illinois, priority 2011, dated 2019).
Converted amounts (≈) assume the structure as drawn. “And” between values parts separate entries of the source, which are not always exact repeats. Equal entries are not always repeated. Where two headings read alike, the source gives them in different places.

Experiments:
[1] = Solubility in 20% HPβCD solution (pH modulation protocol); type: physicochemical; conditions: 20% HPβCD; for solubility: 20% HPβCD in pH 7.4 PBS, pH 7.4, aqueous with cosolvent or surfactant or cyclodextrin, thermodynamic from solid, Table 4.3
Description: The protocol for formulating DNQ compounds in HPβCD is as follows: the DNQ compound is slurried in a 20% solution of HPβCD in pH 7.4 PBS and the pH is then increased by the addition of 10 M NaOH to induce dissolution of the DNQ compound. The pH is returned to pH 7.5-8.0 by the careful addition of 1 M HCl. A 3.3 mM solution of the DNQ compound can be made by this method which is stable at least 24 hours. This represents a 30-fold increase in solubility of DNQ over PBS alone.
Although we were pleased to find active derivatives of DNQ that were up to 4-fold more soluble in water—sufficiently soluble for continuous IV infusion for human administration—this level of solubility was insufficient for animal studies by bolus injection. […] We used the same pH modulation protocol outlined for DNQ described in the specification above. The results are organized in Table 4.3 and FIG. 8. While all compounds were more soluble in HPβCD than in buffer alone, the fold increase in solubility varied widely.

[2] = Aqueous solubility in pH 7.4 PBS by LC-MS; type: physicochemical; conditions: phosphate buffered saline, pH 7.4, aqueous buffer, thermodynamic from solid, PBS pH 7.4; Table 4.3
Description: The aqueous solubility of DNQ at pH 7.4 in phosphate buffered saline (PBS) was measured by LC-MS. DNQ was sonicated for 30 minutes in PBS then undissolved solid was removed by filtration through a 0.45 μm syringe filter and the filtrate was analyzed by LC-MS (λ=275 nm, ESI-TOF in negative mode). The optimal sonication time was determined by sonicating DNQ for 1, 5, 10, and 30 minutes. While the concentration of DNQ in solution increased substantially between 1, 5, and 10 minutes, there was only a minor difference between 10 and 30 minutes. During the 30 minute sonication the water bath warmed to 45° C. (samples were cooled to room temperature before filtration). A calibration curve was generated from 1-100 μM by dissolving DNQ in methanol to a concentration of 500 μM and making dilutions of this stock in 80:20 water:methanol. The calibration curve (measure by UV absorbance) was linear over this range; 1 μM was approximately the limit of detection. […] The solution was very pale yellow.
The aqueous solubility of the compounds was determined by an LC-MS assay as described in the specification above. We applied the calibration curve generated for DNQ to the derivatives under the assumption that the UV profile of the derivatives of DNQ would be similar to that of DNQ.
After sonication and filtration most of the aqueous solutions were colorless. The solutions of DNQ, 4-31, and 4-37 were faintly yellow while 4-8, 4-14 and 4-41 were substantially more colored. The solution of 4-8, 4-14 and 4-41 were diluted 10-fold with PBS prior to LC-MS analysis to ensure that the concentrations fell within the range of the calibration curve.

[3] = tested on: MCF-7 cells; assay: Cytotoxicity to MCF-7 cells with or without 25 μM dicoumarol (sulforhodamine B assay); type: cell-based, human
Description: The NQO1-dependent cytotoxicity of the first set of derivatives was determined in MCF-7 cells which express high levels of NQO1. Cells were exposed to DNQ for 2 hours in the presence or absence of 25 μM DIC. The media was then removed and cells were washed once with media then fresh media was added and the cells were incubated for 72 hours. Cell death was assessed using the sulforhodamine B assay previously described. […] Substitution off the nitrogen appeared well tolerated (4-14 and 4-15).
The DNQ derivatives synthesized were assayed for their toxicity to MCF-7 cells with or without DIC. The data from these experiments is organized in Table 4.2. […] This tolerance of sterically-demanding substituents corresponds with a flexible and promiscuous NQO1 active site. The poor activity of hydroxyl derivative 4-41 may be a result of either poor binding with the largely hydrophobic NQO1 active site or with an excessively strong substrate-enzyme interaction because of hydrogen bonding.

[4] = Solubility in organic solvents; type: physicochemical; conditions: Table 1; for solubility: organic solvent or mixture, thermodynamic from solid, THF
[5] = Solubility in organic solvents; type: physicochemical; conditions: for solubility: organic solvent or mixture, thermodynamic from solid
Description: The solubility of DNQ derivatives in organic solvents was determined by measuring the amount of a given solvent required to dissolve a known amount of compound. Solvent was added to the compound in 50 μL aliquots and the slurry was sonicated. […] Solubility was assessed in DMSO, dichloromethane, and 33% methanol in dichloromethane (FIGS. 9, 10, and 11, respectively).

[6] = Maximum tolerated dose in mice; conditions: mouse, ip
From the text: (§1) Because of the difficulty of repeated tail vein injections in mice, our group is using IP administration of compound.
(§2) All of these derivatives are currently being assessed for their maximum tolerated dose (MTD) in healthy mice. Compounds are formulated in HPβCD and delivered by IP injection to two mice once daily for five days.

[7] = tested on: healthy mice; assay: in vivo; conditions: mouse, 5 days
From the text: as §1, §2

[8] = biological target: NQO1 (Homo sapiens, UniProt P15559); assay: NQO1 enzymatic measurements in vitro; type: biochemical; conditions: 1 μM substrate
NQO1, sequence (P15559 whole entry): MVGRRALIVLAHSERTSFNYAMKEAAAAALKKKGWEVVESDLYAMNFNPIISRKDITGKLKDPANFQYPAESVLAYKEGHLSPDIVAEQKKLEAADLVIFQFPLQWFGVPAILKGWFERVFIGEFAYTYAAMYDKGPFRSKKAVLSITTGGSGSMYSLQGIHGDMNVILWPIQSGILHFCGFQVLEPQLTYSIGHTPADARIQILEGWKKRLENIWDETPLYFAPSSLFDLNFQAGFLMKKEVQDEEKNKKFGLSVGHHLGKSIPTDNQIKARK
Description: As further evidence that the activity of these DNQ derivatives is dependent on their ability to be reduced by NQO1, full enzymatic measurements in vitro were performed. We found a strong correlation between catalytic efficiency of substrates in vitro and their cell culture toxicity. […] This provides strong evidence that the cytotoxicity of DNQ and its derivatives are dependent primarily upon the activity of NQO1 within the cell.

[9] = tested on: PAR-PARP1; assay: PARP1 hyperactivation (PAR-PARP1 formation) in vivo in orthotopic Lewis Lung Carcinoma model, immunoblotting; design: species or system NOD/SCID mice; conditions: iv at or near MTD
Description: Antibodies that specifically detect poly(ADP-ribosyl)ated α-PAR (BD Pharmingen, San Jose, Calif.) proteins (e.g., the most abundant species, poly(ADP-ribosyl)ated PARP1, PAR-PARP1) and α-PARP1 (sc-8007, Santa Cruz Biotechnology) antibodies were used at 1:4000 and 1:2000 dilutions, respectively. α-Tubulin was monitored for loading.
To generate a known control to monitor the formation of poly(ADP-ribose)ylated-polymerase 1 (PAR-PARP1) in cells, LLC tumor cells were treated in vitro with hydrogen peroxide (H2O2, 0.5 μM) for 15 minutes, and whole cell protein lysates were separated by SDS-PAGE using the α-PAR (BD Pharmingen, San Jose, Calif.) antibody described above. PAR-PARP1 formation was then assessed by immunoblot analyses as previously described in Huang et al., Cancer Research, 2012.
LLC cells (1.0×10^6) were intravenously (iv) injected into the tail veins of female 18-20 gram NOD/SCID mice. Establishment of tumor nodules in the lungs of exposed mice were confirmed by bioluminescence and mice (5/group) were treated intravenously (via tail vein injection) with: (i) hydroxypropyl-beta-cyclodextrin (HPRCD) vehicle alone; (ii) DNQ (7.5 mg/kg); (ii) DNQ-87 (14 mg/kg); (iii) DNQ-107 (10 mg/kg); or (vi) DNQ 9-251 (20 mg/kg) dissolved in HPRCD. At specific times indicated (in mins) after injection of vehicle or drug, mice were euthanized, lungs removed and tumor nodules harvested. […] Extracts from cells treated with H2O2 were used as controls for monitoring PAR-PARP1 formation in LLC tumor cells.

[10] = cited from earlier work
[11] = tested on: rats; conditions: cited from earlier work
[12] = tested on: NQO1+ cells; conditions: in vitro; cited from earlier work
[13] = 20% HPβCD in H2O; cited from earlier work
[14] = pH 7.4 PBS; cited from earlier work
[15] = reported; cited from earlier work
[16] = Homo sapiens, MCF7, Table 1, read-out: MCF7 IC50
[17] = Homo sapiens, MCF7, classification in figure legends of FIGS. 7-11, read-out: IC50 ("active" / generally "inactive" compounds)
[18] = 2:1 CH2Cl2:MeOH, Table 4.3, read-out: Solubility in 2:1 CH2Cl2:MeOH
[19] = CH2Cl2:MeOH 2:1, Table 1, read-out: CH2Cl2:MeOH 2:1 solubility
[20] = CH2Cl2, Table 1, read-out: CH2Cl2 solubility
[21] = DMSO, Table 1, read-out: DMSO solubility

Cc1cc(=O)[nH]c2c1C(=O)c1c(C)cc(=O)n(CCC(C)(C)C)c1C2=O [Compound 9-251]
fold increase in solubility in HPβCD over PBS alone [1]: 3000 fold
solubility [1]: 19 mM (≈ 6730 µg/mL)
solubility at 30 min [2]: 7 µM (≈ 2.48 µg/mL)
IC50 [3, 16]: 190 ± 20 nM
IC50 ([3]; Homo sapiens, MCF7, Table 4.2, no DIC, ± s.e., read-out: IC50 vs. MCF-7 cells): 220 ± 40 nM
IC50 [3, 17]: < 500 nM
IC50 ([3]; Homo sapiens, MCF7, read-out: IC50 vs. MCF-7 cells +25 μM DIC, Table 4.2, +25 μM DIC, ± s.e.): 1600 ± 600 nM
Fold Protection of MCF7 cells w/ 25 μM dicoumarol ([3]; Table 1): 8
Fold protection by DIC ([3]; Table 4.2): 7.1
solubility [4]: 23 mM (≈ 8150 µg/mL)
Solubility in CH2Cl2 ([5]; CH2Cl2, Table 4.3): 31 mM (≈ 11000 µg/mL)
Solubility in DMSO ([5]; DMSO, Table 4.3): 15 mM (≈ 5320 µg/mL)
solubility [5, 18]: 120 mM (≈ 42500 µg/mL)
solubility [5, 19]: 120 mM (≈ 42500 µg/mL)
solubility [5, 20]: 31 mM (≈ 11000 µg/mL)
solubility [5, 21]: 15 mM (≈ 5320 µg/mL)
MTD at 5 days ([6]; in vivo): 22 mg/kg and 62 µmol/kg
tolerated concentration relative to DNQ [7]: 3.5 fold
NQO1 Initial Velocity @ 1 μM [8]: 2000 ± 100
PAR-PARP1 formation in tumor tissue [9]: higher levels of PAR-PARP1 formation

2-hydroxypropyl-beta-cyclodextrin [HPβCD]
tolerated dose by IP injection [10]: > 5 g/kg
MTD by IV injection [11]: approximately 2.25 g/kg

CC1(C)CCC2=C(O1)c1ccccc1C(=O)C2=O [β-lap, β-lapachone, reference compound]
LD50 [12]: 2 to 10 µM
Fold Protection of MCF7 cells w/ 25 μM dicoumarol ([3]; Table 1): 2.1
IC50 ([3]; Table 1, read-out: MCF7 IC50): 3700 nM
fold increase in solubility in HPβCD [13]: ~150 fold
THF solubility [4]: 660 mM
CH2Cl2:MeOH 2:1 solubility ([5]; CH2Cl2:MeOH 2:1, Table 1): 1400 mM
CH2Cl2 solubility ([5]; CH2Cl2, Table 1): 1650 mM
DMSO solubility ([5]; DMSO, Table 1): 170 mM
NQO1 Initial Velocity @ 1 μM [8]: 150
aqueous solubility [14]: ~160 µM (≈ 38.8 µg/mL)
time to complete degradation in whole blood [15]: ≤ 30 min

CCc1cc(=O)n(C)c2c1C(=O)c1c(C)cc(=O)[nH]c1C2=O [Compound 107]
solubility [1]: 4.4 mM (≈ 1310 µg/mL)
solubility at 30 min [2]: 439 µM (≈ 131 µg/mL)
IC50 ([3]; Homo sapiens, MCF7, 2 h, Table 4.1, 2 h exposure, no DIC, ± s.e., read-out: IC50 vs. MCF-7 cells): 280 ± 60 nM
IC50 [3, 16]: 280 nM
IC50 [3, 17]: < 500 nM
IC50 ([3]; Homo sapiens, MCF7, read-out: IC50 vs. MCF-7 cells +25 μM DIC, Table 4.1, +25 μM DIC, ± s.e.): 1300 ± 400 nM
Fold Protection of MCF7 cells w/ 25 μM dicoumarol ([3]; Table 1): 4.5
Fold protection by DIC ([3]; Table 4.1): 4.5
solubility [4]: 4.7 mM (≈ 1400 µg/mL)
Solubility in CH2Cl2 ([5]; CH2Cl2, Table 4.3): 5.5 mM (≈ 1640 µg/mL)
Solubility in DMSO ([5]; DMSO, Table 4.3): 31 mM (≈ 9250 µg/mL)
solubility [5, 18]: 37 mM (≈ 11000 µg/mL)
solubility [5, 19]: 37 mM (≈ 11000 µg/mL)
solubility [5, 20]: 5.5 mM (≈ 1640 µg/mL)
solubility [5, 21]: 31 mM (≈ 9250 µg/mL)
MTD at 5 days [6]: ≤ 10 mg/kg and ≤ 35 µmol/kg
NQO1 Initial Velocity @ 1 μM [8]: 1400 ± 100
PAR-PARP1 formation in tumor tissue [9]: higher levels of PAR-PARP1 formation
